Test results as given in patent publication US8232295B2, “Treating vascular events with statins by inhibiting PAR-1 and PAR-4” (Heartdrug Research, L.L.C., priority 2004, dated 2012).

Tests used:
[1] = system: platelet PAR-1/PAR-4 receptors (cleaved epitope); test: Whole blood flow cytometry with WEDE15 monoclonal antibody (cleaved epitope) in statin-treated patients with coronary artery disease; format: in vivo, human; settings: n = 10
From the text: (§1) The study was designed as a prospective, single blinded, placebo controlled trial of 6 major statins currently available in the US. The study was approved by local institutional review boards. Written informed consent was obtained from all patients, who were informed of the strict compliance rules, and compensated for outpatient visits, and blood draws.
(§2) Blood samples were obtained with a 19-gauge needle by direct venipuncture and drawn into two 7-ml vacutainer tubes at room temperature containing 3.8% trisodium citrate. The vacutainer tube was filled to capacity and gently inverted 3 to 5 times to ensure complete mixing of the anticoagulant. The first 4-5 ml of blood were used for lipid profile analysis, or discharged. All samples were labeled with coded number and analyzed by blinded technicians. Platelet studies were performed at baseline as well as at Week 4, and Week 6.
(§3) The blood-citrate mixture (50 μl) was diluted with 450 μl Tris buffered saline (TBS) (10 mmol/l Tris, 0.15 mol/l sodium chloride) and mixed by inverting an Eppendorf tube gently two times. The appropriate antibody was then added (5 μl) and incubated at 37° C. for 30 minutes, after incubation, 400 μl of 2% buffered paraformaldehyde was added for fixation. The samples were analyzed on the FACScan flow cytometer (Becton Dickinson, San Diego, Calif.) calibrated to measure fluorescent light scatter. All parameters were collected using four-decade logarithmic amplification. The data were collected in list mode files and then analyzed. The surface expression of platelet receptors was determined by flow cytometry using the following monoclonal antibodies: cleaved (WEDE15), and intact (SPAN12) platelet thrombin PAR-1/PAR-4 receptors (Beckman Coulter, Brea, Calif.), and they were expressed as log mean fluorescence intensity.
(§4) The significance of differences between treatments arms was calculated by c2 and Fisher's exact tests for discrete variables, and Wilcoxon rank-sum test for continuous variables. The significance of differences between individual flow cytometric histograms was calculated using the Smirnov-Kolgomorov test incorporated in the CELLQuest' (San Diego, Calif.) software. Statistical analyses were performed using SPSS/E11.5 (SPSS, Inc., Chicago, Ill.). To control for any baseline differences analysis of variance was used. All p values are 2 sided.

[2] = system: platelet PAR-1/PAR-4 receptors (intact epitope); test: Whole blood flow cytometry with SPAN12 monoclonal antibody (nonactive, intact epitope) in statin-treated patients with coronary artery disease; format: in vivo, human; settings: n = 10
From the text: as §1, §2, §3, §4

[3] = Baseline (pretreatment), patients with coronary artery disease, mean ± SD
[4] = Week 4 of statin therapy, dose at physician discretion (Table 2), *p < 0.05
[5] = Week 6 of statin therapy, dose at physician discretion (Table 2), *p < 0.05

Row | Compound | WEDE15-MoAbs (a cleaved epitope of PAR-1/PAR-4 receptors) receptor expression [1, 3] | WEDE15-MoAbs (a cleaved epitope of PAR-1/PAR-4 receptors) receptor expression [1, 4] | WEDE15-MoAbs (a cleaved epitope of PAR-1/PAR-4 receptors) receptor expression [1, 5] | SPAN-12-MoAbs (nonactive, intact epitope of PAR-1/PAR-4 receptors) receptor expression [2, 3] | SPAN-12-MoAbs (nonactive, intact epitope of PAR-1/PAR-4 receptors) receptor expression [2, 4] | SPAN-12-MoAbs (nonactive, intact epitope of PAR-1/PAR-4 receptors) receptor expression [2, 5]
1 | CC(C)n1c(/C=C/C(O)CC(O)CC(=O)O)c(-c2ccc(F)cc2)c2ccccc21 (stereo not drawn) [Fluvastatin, fluvastatin] | 27.1 ± 5.9 Log mean fluorescence intensity | 18.0 ± 5.8* Log mean fluorescence intensity | 20.7 ± 4.1* Log mean fluorescence intensity | 42.8 ± 8.2 Log mean fluorescence intensity | 37.1 ± 7.3 Log mean fluorescence intensity | 29.9 ± 6.4* Log mean fluorescence intensity
2 | CC(C)c1nc(N(C)S(C)(=O)=O)nc(-c2ccc(F)cc2)c1/C=C/[C@@H](O)C[C@@H](O)CC(=O)O [Rosuvastatin, rosuvastatin] | 30.1 ± 7.2 Log mean fluorescence intensity | 17.4 ± 5.5* Log mean fluorescence intensity | 22.6 ± 7.2* Log mean fluorescence intensity | 42.2 ± 9.4 Log mean fluorescence intensity | 33.6 ± 5.9 Log mean fluorescence intensity | 25.1 ± 7.0* Log mean fluorescence intensity
3 | CCC(C)(C)C(=O)O[C@H]1C[C@@H](C)C=C2C=C[C@H](C)[C@H](CC[C@@H]3C[C@@H](O)CC(=O)O3)[C@H]21 [Simvastatin, simvastatin] | 29.0 ± 7.3 Log mean fluorescence intensity | 16.6 ± 5.5* Log mean fluorescence intensity | 23.4 ± 8.1 Log mean fluorescence intensity | 45.4 ± 7.0 Log mean fluorescence intensity | 26.5 ± 5.8* Log mean fluorescence intensity | 24.9 ± 6.2* Log mean fluorescence intensity
4 | CC(C)c1c(C(=O)Nc2ccccc2)c(-c2ccccc2)c(-c2ccc(F)cc2)n1CC[C@@H](O)C[C@@H](O)CC(=O)O [Atorvastatin, atorvastatin] | 27.5 ± 4.9 Log mean fluorescence intensity | 16.1 ± 5.8* Log mean fluorescence intensity | 18.0 ± 7.4* Log mean fluorescence intensity | 46.1 ± 8.3 Log mean fluorescence intensity | 39.5 ± 5.7 Log mean fluorescence intensity | 30.8 ± 4.0* Log mean fluorescence intensity
5 | CC[C@H](C)C(=O)O[C@H]1C[C@@H](C)C=C2C=C[C@H](C)[C@H](CC[C@@H]3C[C@@H](O)CC(=O)O3)[C@H]21 [Lovastatin, lovastatin] | 26.8 ± 4.9 Log mean fluorescence intensity | 18.4 ± 5.0* Log mean fluorescence intensity | 23.0 ± 6.3 Log mean fluorescence intensity | 40.6 ± 6.9 Log mean fluorescence intensity | 40.0 ± 8.1 Log mean fluorescence intensity | 31.1 ± 5.5* Log mean fluorescence intensity
6 | CC[C@H](C)C(=O)O[C@H]1C[C@H](O)C=C2C=C[C@H](C)[C@H](CC[C@@H](O)C[C@@H](O)CC(=O)O)[C@H]21 [Pravastatin, pravastatin] | 28.2 ± 4.4 Log mean fluorescence intensity | 16.9 ± 4.8* Log mean fluorescence intensity | 20.1 ± 6.6* Log mean fluorescence intensity | 50.3 ± 9.1 Log mean fluorescence intensity | 29.0 ± 6.7* Log mean fluorescence intensity | 32.6 ± 8.4* Log mean fluorescence intensity
